According to article PMC4310350 (Drug Design, Development and Therapy, 2015):
“Also recorded” adds a separate entry of the source.

Experiments:
OATP1B1 = biological target: T1, OATP1B1 (Homo sapiens, UniProt Q9Y6L6); assay: Uptake in HEK293 cells overexpressing OATP1B1; assay type: in vitro ADME; settings: OATP1B1-mediated uptake
T1 sequence (Q9Y6L6 1-691): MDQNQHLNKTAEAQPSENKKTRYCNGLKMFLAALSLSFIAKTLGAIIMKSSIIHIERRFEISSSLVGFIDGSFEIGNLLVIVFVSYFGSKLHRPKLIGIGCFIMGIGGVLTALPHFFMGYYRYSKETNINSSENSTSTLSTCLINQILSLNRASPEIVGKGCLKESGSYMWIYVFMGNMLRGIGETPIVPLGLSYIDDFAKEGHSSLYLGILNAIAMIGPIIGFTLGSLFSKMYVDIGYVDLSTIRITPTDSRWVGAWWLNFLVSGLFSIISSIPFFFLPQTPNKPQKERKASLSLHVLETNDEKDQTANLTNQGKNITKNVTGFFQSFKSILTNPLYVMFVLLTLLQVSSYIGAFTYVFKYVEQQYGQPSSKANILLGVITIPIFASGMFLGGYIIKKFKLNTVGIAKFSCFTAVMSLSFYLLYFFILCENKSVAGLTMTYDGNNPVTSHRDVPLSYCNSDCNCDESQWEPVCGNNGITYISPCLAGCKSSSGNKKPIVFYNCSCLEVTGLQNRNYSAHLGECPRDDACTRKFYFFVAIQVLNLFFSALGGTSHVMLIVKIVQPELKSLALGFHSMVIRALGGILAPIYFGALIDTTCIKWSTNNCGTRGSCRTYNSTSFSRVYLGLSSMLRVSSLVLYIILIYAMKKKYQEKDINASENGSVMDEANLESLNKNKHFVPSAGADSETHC

P-gp = P-gp (Homo sapiens, UniProt P08183); assay: A-to-B and B-to-A transport in LLC-PK1 cells overexpressing P-gp; assay type: in vitro ADME; settings: P-gp (MDR1), efflux
BCRP [1] = biological target: T2, BCRP (Homo sapiens, UniProt Q9UNQ0); assay: A-to-B and B-to-A transport in LLC-PK1 cells overexpressing BCRP; assay type: in vitro ADME; settings: BCRP, efflux
T2 sequence (Q9UNQ0 1-655): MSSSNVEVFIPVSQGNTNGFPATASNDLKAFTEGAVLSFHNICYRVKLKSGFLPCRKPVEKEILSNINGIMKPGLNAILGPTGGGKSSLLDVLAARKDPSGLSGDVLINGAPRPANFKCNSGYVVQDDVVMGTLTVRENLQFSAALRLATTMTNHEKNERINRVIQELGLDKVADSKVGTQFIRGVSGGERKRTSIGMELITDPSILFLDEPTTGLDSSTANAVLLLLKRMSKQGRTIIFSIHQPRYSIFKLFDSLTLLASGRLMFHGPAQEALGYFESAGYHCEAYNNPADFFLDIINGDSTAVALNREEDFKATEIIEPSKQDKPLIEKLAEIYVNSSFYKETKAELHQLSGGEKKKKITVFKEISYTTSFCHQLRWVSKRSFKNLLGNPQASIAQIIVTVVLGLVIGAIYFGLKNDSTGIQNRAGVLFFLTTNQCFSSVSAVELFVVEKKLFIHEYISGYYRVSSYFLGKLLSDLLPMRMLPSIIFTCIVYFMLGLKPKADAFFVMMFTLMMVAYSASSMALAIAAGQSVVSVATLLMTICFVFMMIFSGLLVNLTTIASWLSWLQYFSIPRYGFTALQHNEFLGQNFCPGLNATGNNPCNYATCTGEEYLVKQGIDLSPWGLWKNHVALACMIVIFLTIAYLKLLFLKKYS

OCT1 = biological target: T3, OCT1 (Homo sapiens, UniProt O15245); assay: Inhibitory effect of catalposide on OCT1 transport activity; assay type: in vitro ADME; settings: probe 0.1 μM [3H]MPP+, catalposide 0–100 μM
T3 sequence (O15245 1-554): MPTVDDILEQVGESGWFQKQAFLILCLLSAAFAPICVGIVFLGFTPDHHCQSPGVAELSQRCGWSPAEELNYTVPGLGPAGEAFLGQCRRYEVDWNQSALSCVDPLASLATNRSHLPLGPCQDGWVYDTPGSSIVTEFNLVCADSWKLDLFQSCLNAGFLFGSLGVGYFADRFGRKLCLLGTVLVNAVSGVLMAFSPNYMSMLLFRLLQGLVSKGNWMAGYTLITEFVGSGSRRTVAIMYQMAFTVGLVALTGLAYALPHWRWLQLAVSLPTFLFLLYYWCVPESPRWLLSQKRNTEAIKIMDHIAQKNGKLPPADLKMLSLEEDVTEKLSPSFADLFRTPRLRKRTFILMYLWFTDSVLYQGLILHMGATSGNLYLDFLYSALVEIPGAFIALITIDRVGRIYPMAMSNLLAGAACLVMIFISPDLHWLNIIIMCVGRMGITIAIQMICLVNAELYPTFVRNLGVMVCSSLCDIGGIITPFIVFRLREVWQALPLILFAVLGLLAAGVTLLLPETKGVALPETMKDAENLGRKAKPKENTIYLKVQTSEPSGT

BCRP [2] = biological target: T2, BCRP; assay: Inhibitory effect of catalposide on BCRP transport activity; assay type: in vitro ADME; settings: probe 0.1 μM [3H]ES, catalposide 1–100 μM
[3] = Pharmacokinetics in rats after intravenous administration; assay type: in vivo; settings: from the cited clearance values
[4] = rats, cited from earlier work
[5] = 3-hour incubation in rat plasma; cited from earlier work

P-gp, sequence (P08183 whole entry): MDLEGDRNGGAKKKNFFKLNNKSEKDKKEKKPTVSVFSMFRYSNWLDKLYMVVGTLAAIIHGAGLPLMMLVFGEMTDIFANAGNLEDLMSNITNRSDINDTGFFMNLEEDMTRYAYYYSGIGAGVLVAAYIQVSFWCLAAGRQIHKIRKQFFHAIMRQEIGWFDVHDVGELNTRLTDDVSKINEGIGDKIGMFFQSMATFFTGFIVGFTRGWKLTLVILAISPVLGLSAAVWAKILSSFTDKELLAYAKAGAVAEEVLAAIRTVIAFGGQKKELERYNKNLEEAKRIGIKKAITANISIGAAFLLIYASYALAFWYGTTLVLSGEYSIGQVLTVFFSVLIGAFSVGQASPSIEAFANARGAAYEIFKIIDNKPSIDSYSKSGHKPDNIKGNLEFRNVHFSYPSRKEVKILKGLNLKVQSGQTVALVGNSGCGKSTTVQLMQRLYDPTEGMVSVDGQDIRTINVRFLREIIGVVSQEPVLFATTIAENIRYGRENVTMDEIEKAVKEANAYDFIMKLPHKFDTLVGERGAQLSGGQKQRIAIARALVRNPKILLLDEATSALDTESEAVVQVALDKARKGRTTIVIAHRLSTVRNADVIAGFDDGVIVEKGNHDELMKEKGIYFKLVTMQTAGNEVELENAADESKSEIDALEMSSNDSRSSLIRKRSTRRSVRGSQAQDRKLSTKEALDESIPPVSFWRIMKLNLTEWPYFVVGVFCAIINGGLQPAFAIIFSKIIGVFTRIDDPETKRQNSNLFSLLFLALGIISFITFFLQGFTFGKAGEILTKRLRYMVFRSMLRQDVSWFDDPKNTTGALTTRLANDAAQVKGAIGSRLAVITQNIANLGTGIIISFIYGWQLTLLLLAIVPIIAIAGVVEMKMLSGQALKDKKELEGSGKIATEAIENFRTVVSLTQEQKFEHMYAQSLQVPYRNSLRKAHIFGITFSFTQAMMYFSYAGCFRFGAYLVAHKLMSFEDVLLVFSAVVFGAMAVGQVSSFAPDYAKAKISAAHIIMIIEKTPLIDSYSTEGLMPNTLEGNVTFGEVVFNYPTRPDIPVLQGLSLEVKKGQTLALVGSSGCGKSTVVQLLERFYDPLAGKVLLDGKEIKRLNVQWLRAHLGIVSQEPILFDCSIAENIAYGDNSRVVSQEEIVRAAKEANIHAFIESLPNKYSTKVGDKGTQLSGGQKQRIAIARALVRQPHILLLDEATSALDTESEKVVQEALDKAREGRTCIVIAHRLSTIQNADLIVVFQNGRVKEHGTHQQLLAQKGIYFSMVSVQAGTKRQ

## O=C(O[C@H]1[C@@H]2C=CO[C@@H](O[C@@H]3O[C@H](CO)[C@@H](O)[C@H](O)[C@H]3O)[C@@H]2[C@@]2(CO)O[C@@H]12)c1ccc(O)cc1 [catalposide]
OATP1B1
  Hill coefficient n: ~1
P-gp
  Substrate: not involved; also recorded: not a substrate
BCRP [1]
  Substrate: not involved; also recorded: not a substrate
OCT1
  Inhibitor: did not significantly inhibit
BCRP [2]
  Inhibitor: did not significantly inhibit
[3]
  Share cleared by nonrenal clearance: approximately 90%
[4]; intravenous 10 mg/kg, % of dose
  Recovery in the urine (unchanged form): 9.9%
[4]; intravenous
  Distribution volume: 2657.2 ± 1396.9 mL/kg
  Nonrenal clearance: 88.2 mL/min/kg
  Renal clearance: 8.47 mL/min/kg
  Systemic clearance: 96.7 ± 44.2 mL/min/kg
  Terminal half-life: 19.3 ± 9.5 min
[5]
  Stability: remained stable
